The record followed here is PubChem BioAssay (NCI).

Among the test systems are NCI-H460 lung; SF-295 CNS; NCI-H226 lung; SF-539 CNS; NCI-H522 lung; BT-549 breast; MALME-3M melanoma; MCF7 breast; HCT-116 colon; OVCAR-8 ovarian.
What all share (test): inhibition of tumour cell growth, NCI panel, 48 h

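How tested: cells in 96-well plates exposed to compound for 48 hours at five concentrations. GI50 is the concentration that inhibits growth by half. TGI marks complete inhibition of growth.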

With `CCS(=O)(=O)c1ccc(OC)c(Nc2ncc(-c3cccc(-c4ccccc4F)c3)o2)c1`, the GI50 in the experiment on NCI-H460 lung is greater than 25 µM; in the experiment on SF-295 CNS, 10.1 µM; in the experiment with NCI-H226 lung, 2.24 µM; in the experiment with SF-539 CNS, 7.81 µM; in the experiment on NCI-H522 lung, 10.6 µM; in the experiment on BT-549 breast, greater than 22.2 µM. Further, the GI50 in the experiment on MALME-3M melanoma is greater than 25 µM; with MCF7 breast it was greater than 21 µM; in the experiment on HCT-116 colon, greater than 22.9 µM; in the experiment with OVCAR-8 ovarian, greater than 25 µM. Further, the TGI with NCI-H460 lung, in the experiment on SF-295 CNS, in the experiment on NCI-H226 lung, in the experiment with SF-539 CNS, in the experiment with NCI-H522 lung and in the experiment on BT-549 breast was greater than 25 µM in each case. Moreover, the TGI in the experiment on MALME-3M melanoma, in the experiment with MCF7 breast, in the experiment with HCT-116 colon and in the experiment with OVCAR-8 ovarian was greater than 25 µM in each case.
`O=C(Nc1cccnc1)c1cccs1`: the GI50 in the experiment on NCI-H460 lung was 6.6 µM; with SF-295 CNS, 5.04 µM; in the experiment on NCI-H226 lung, 41 µM; in the experiment on SF-539 CNS, 4.51 µM; in the experiment with NCI-H522 lung, greater than 100 µM; in the experiment on BT-549 breast it was 6.78 µM. Also, the GI50 in the experiment with MALME-3M melanoma is greater than 100 µM; in the experiment on MCF7 breast, 1.67 µM; in the experiment on HCT-116 colon, 1.89 µM; in the experiment on OVCAR-8 ovarian, 8.94 µM. The TGI in the experiment on NCI-H460 lung, with SF-295 CNS, in the experiment on NCI-H226 lung, with SF-539 CNS, in the experiment with NCI-H522 lung and in the experiment on BT-549 breast was greater than 100 µM in each case. Also, the TGI with MALME-3M melanoma, with MCF7 breast, in the experiment with HCT-116 colon and in the experiment on OVCAR-8 ovarian was greater than 100 µM each time.
For the compound `Nc1cccc(-c2nc3sccn3c2-c2ccnc(NCCCNS(=O)(=O)c3ccc(C(F)(F)F)cc3)n2)c1`, the GI50 in the experiment with NCI-H460 lung is 4.58 µM; in the experiment with SF-295 CNS it was 3.08 µM; in the experiment on NCI-H226 lung, 3.14 µM; with SF-539 CNS, 6.66 µM; with NCI-H522 lung it was 3.35 µM; in the experiment on BT-549 breast it was 2.95 µM. The GI50 in the experiment with MALME-3M melanoma is 3.94 µM; in the experiment on MCF7 breast it was 4.04 µM; in the experiment on HCT-116 colon, 3.55 µM; with OVCAR-8 ovarian, 3.49 µM. Further, the TGI amounted to 58.6 µM in the experiment on NCI-H460 lung; 10.1 µM in the experiment on SF-295 CNS; 16.5 µM in the experiment with NCI-H226 lung; 29.6 µM with SF-539 CNS; 18.2 µM in the experiment on NCI-H522 lung; 13.1 µM with BT-549 breast. Further, the TGI in the experiment on MALME-3M melanoma is 18 µM; in the experiment on MCF7 breast, 18.5 µM; with HCT-116 colon, 30.5 µM; with OVCAR-8 ovarian, 44.9 µM.
In the case of `COc1ccc(C2=C(Br)C(=O)OC2)cc1Cl`, the GI50 in the experiment with NCI-H460 lung is 33.2 µM; with SF-295 CNS it was 34 µM; in the experiment on NCI-H226 lung, 25 µM; in the experiment on SF-539 CNS it was 15.2 µM; in the experiment with NCI-H522 lung it was 37.8 µM; in the experiment on BT-549 breast it was 22.7 µM. In addition, the GI50 was 37.3 µM in the experiment with MALME-3M melanoma, 29.6 µM in the experiment with MCF7 breast, 20.4 µM in the experiment on HCT-116 colon and 20.2 µM in the experiment on OVCAR-8 ovarian. The TGI in the experiment with NCI-H460 lung is greater than 100 µM; in the experiment on SF-295 CNS it was 98.4 µM; in the experiment with NCI-H226 lung it was 62.7 µM; with SF-539 CNS, 39.8 µM; in the experiment with NCI-H522 lung, greater than 100 µM; in the experiment with BT-549 breast, 64.7 µM. Also, the TGI was greater than 78.3 µM with MALME-3M melanoma, greater than 93 µM in the experiment on MCF7 breast, 49.5 µM with HCT-116 colon and greater than 52.7 µM in the experiment on OVCAR-8 ovarian.
Turning to `Clc1cccc(Cn2cc(Cc3cn(Cc4cccc(Cl)c4)c4ccccc34)c3ccccc32)c1`, the GI50 in the experiment with NCI-H460 lung was 46.5 µM; in the experiment on SF-295 CNS, 86.2 µM; with NCI-H226 lung it was 10.1 µM; in the experiment on SF-539 CNS, greater than 100 µM; in the experiment with NCI-H522 lung it was 45.5 µM; in the experiment on BT-549 breast, greater than 100 µM. Also, the GI50 in the experiment on MALME-3M melanoma, in the experiment with MCF7 breast, with HCT-116 colon and with OVCAR-8 ovarian was greater than 100 µM throughout. Moreover, the TGI was greater than 100 µM with NCI-H460 lung; greater than 100 µM with SF-295 CNS; 59 µM with NCI-H226 lung; greater than 100 µM in the experiment with SF-539 CNS; greater than 100 µM in the experiment with NCI-H522 lung; greater than 100 µM with BT-549 breast. For the same compound, the TGI with MALME-3M melanoma, in the experiment on MCF7 breast, in the experiment on HCT-116 colon and in the experiment with OVCAR-8 ovarian was greater than 100 µM in each case.
Take `CNC(=O)c1cc(Oc2ccc3nc(NC(=O)c4cc(C(F)(F)F)cc(C(F)(F)F)c4)sc3c2)ccn1`: the GI50 with NCI-H460 lung is 3.83 µM; in the experiment with SF-295 CNS it was 2.56 µM; with NCI-H226 lung, 4.15 µM; in the experiment on SF-539 CNS, 3.14 µM; in the experiment with NCI-H522 lung, 2.82 µM; in the experiment on BT-549 breast, 3.05 µM. The GI50 with MALME-3M melanoma is 2.03 µM; with MCF7 breast it was 3.37 µM; with HCT-116 colon, 3.41 µM; with OVCAR-8 ovarian, 3.06 µM. The TGI in the experiment on NCI-H460 lung is 14.6 µM; in the experiment on SF-295 CNS, 10.5 µM; in the experiment with NCI-H226 lung, 17.4 µM; with SF-539 CNS it was 14.8 µM; in the experiment on NCI-H522 lung it was 8.77 µM; with BT-549 breast, 12.4 µM. Also, the TGI is 6.65 µM in the experiment with MALME-3M melanoma, 18 µM with MCF7 breast, 11.9 µM in the experiment with HCT-116 colon and 13 µM with OVCAR-8 ovarian.
In the case of `CC(C)[C@@H]1NC(=O)[C@]2(C)CSC(=N2)c2csc(n2)CNC(=O)C[C@@H](/C=C/CCS)OC1=O`, the GI50 with NCI-H460 lung was 0.0332 µM; with SF-295 CNS it was 0.0358 µM; with NCI-H226 lung it was 0.403 µM; with SF-539 CNS, 0.0543 µM; with NCI-H522 lung, 0.165 µM; with BT-549 breast, 0.397 µM. Further, the GI50 was 0.0295 µM in the experiment with MALME-3M melanoma, 0.274 µM in the experiment with MCF7 breast, 0.123 µM with HCT-116 colon and 0.0858 µM in the experiment on OVCAR-8 ovarian. The TGI in the experiment on NCI-H460 lung is greater than 100 µM; in the experiment with SF-295 CNS, 0.51 µM; in the experiment with NCI-H226 lung, 7.69 µM; in the experiment with SF-539 CNS, greater than 100 µM; in the experiment on NCI-H522 lung it was 3.75 µM; with BT-549 breast, greater than 100 µM. In addition, the TGI with MALME-3M melanoma is greater than 100 µM; in the experiment on MCF7 breast it was greater than 100 µM; in the experiment with HCT-116 colon, 1.08 µM; in the experiment on OVCAR-8 ovarian, greater than 100 µM.
